{"source": "patent US7271165B2", "about": "“Rifamycin analogs and uses thereof” (priority 2003, dated 2007)", "key": {"E coli": {"test_system": "E coli", "experiment": "MIC assay, E coli", "format": "cell-based"}, "H. flu": {"test_system": "H. flu", "format": "cell-based, H. influenza", "details": "H. flu"}, "S. aureus": {"test_system": "S. aureus", "experiment": "MIC assay, S. aureus", "format": "cell-based, Staphylococcus aureus"}, "S. pneumo.": {"test_system": "S. pneumo.", "experiment": "MIC assay, S. pneumo.", "format": "cell-based, Streptococcus pneumoniae"}, "E. faecalis": {"test_system": "E. faecalis", "experiment": "MIC assay, E. faecalis", "format": "cell-based, Enterococcus faecalis"}}, "data": [{"smiles": "COC1C=COC2(C)Oc3c(C)c(O)c4c(=O)c(c5oc6cc(N7CCC(c8ccccc8)CC7)cc(O)c6nc-5c4c3C2=O)NC(=O)C(C)=CC=CC(C)C(O)C(C)C(O)C(C)C(OC(C)=O)C1C", "note": "(stereo not drawn) [Compound 57, 3′-hydroxy-5′-[4-phenyl-1-piperidinyl]benzoxazinorifamycin]", "values": [{"measurement": "MIC (μg/mL) E coli", "setting": "E coli", "value": 8, "unit": "µg/mL"}, {"measurement": "MIC (μg/mL) H. flu", "setting": "H. flu", "value": 0.5, "unit": "µg/mL"}, {"measurement": "MIC (μg/mL) S. aureus", "setting": "S. aureus", "value": 0.008, "unit": "µg/mL"}, {"measurement": "MIC (μg/mL) S. pneumo.", "setting": "S. pneumo.", "value": 0.0005, "unit": "µg/mL"}, {"measurement": "MIC (μg/mL) E. faecalis", "setting": "E. faecalis", "value": 2, "unit": "µg/mL"}]}, {"smiles": "COC1C=COC2(C)Oc3c(C)c(O)c4c(=O)c(c5oc6cc(N7CC8CCCN(C)C8C7)cc(O)c6nc-5c4c3C2=O)NC(=O)C(C)=CC=CC(C)C(O)C(C)C(O)C(C)C(OC(C)=O)C1C", "note": "[Compound 58, 3′-hydroxy-5′-[1-methyl-(4aS,7aS)-octahydro-6H-pyrrolo[3,4-b]pyridin-6-yl]benzoxazinorifamycin]", "values": [{"measurement": "MIC (μg/mL) E coli", "setting": "E coli", "value": ">8", "unit": "µg/mL"}, {"measurement": "MIC (μg/mL) H. flu", "setting": "H. flu", "value": 0.25, "unit": "µg/mL"}, {"measurement": "MIC (μg/mL) S. aureus", "setting": "S. aureus", "value": 0.03, "unit": "µg/mL"}, {"measurement": "MIC (μg/mL) S. pneumo.", "setting": "S. pneumo.", "value": 0.004, "unit": "µg/mL"}, {"measurement": "MIC (μg/mL) E. faecalis", "setting": "E. faecalis", "value": 1, "unit": "µg/mL"}]}, {"smiles": "COC1C=COC2(C)Oc3c(C)c(O)c4c(=O)c(c5oc6cc(N7CC8CCCN(C)C8C7)cc(O)c6nc-5c4c3C2=O)NC(=O)C(C)=CC=CC(C)C(O)C(C)C(O)C(C)C(O)C1C", "note": "[Compound 59, 25-O-deacetyl-3′-hydroxy-5′-[1-methyl-(4aS,7aS)-octahydro-6H-pyrrolo[3,4-b]pyridin-6-yl]benzoxazinorifamycin]", "values": [{"measurement": "MIC (μg/mL) E coli", "setting": "E coli", "value": 4, "unit": "µg/mL"}, {"measurement": "MIC (μg/mL) H. flu", "setting": "H. flu", "value": 0.12, "unit": "µg/mL"}, {"measurement": "MIC (μg/mL) S. aureus", "setting": "S. aureus", "value": 0.004, "unit": "µg/mL"}, {"measurement": "MIC (μg/mL) S. pneumo.", "setting": "S. pneumo.", "value": 0.001, "unit": "µg/mL"}, {"measurement": "MIC (μg/mL) E. faecalis", "setting": "E. faecalis", "value": 0.06, "unit": "µg/mL"}]}, {"smiles": "CCOC(=O)NCC1CCN(c2cc(O)c3nc4c5c6c7c(C)c(O)c5c(=O)c(c-4oc3c2)NC(=O)C(C)=CC=CC(C)C(O)C(C)C(O)C(C)C(O)C(C)C(OC)C=COC(C)(O7)C6=O)CC1", "note": "(stereo not drawn) [Compound 60, 25-O-deacetyl-3′-hydroxy-5′-[4-ethylcarbamylmethyl-1-piperidinyl]benzoxazinorifamycin]", "values": [{"measurement": "MIC (μg/mL) E coli", "setting": "E coli", "value": ">8", "unit": "µg/mL"}, {"measurement": "MIC (μg/mL) H. flu", "setting": "H. flu", "value": 0.06, "unit": "µg/mL"}, {"measurement": "MIC (μg/mL) S. aureus", "setting": "S. aureus", "value": 0.008, "unit": "µg/mL"}, {"measurement": "MIC (μg/mL) S. pneumo.", "setting": "S. pneumo.", "value": 0.0005, "unit": "µg/mL"}, {"measurement": "MIC (μg/mL) E. faecalis", "setting": "E. faecalis", "value": 0.5, "unit": "µg/mL"}]}, {"smiles": "COC1C=COC2(C)Oc3c(C)c(O)c4c(=O)c(c5oc6cc(N7CCC(CCO)CC7)cc(O)c6nc-5c4c3C2=O)NC(=O)C(C)=CC=CC(C)C(O)C(C)C(O)C(C)C(OC(C)=O)C1C", "note": "(stereo not drawn) [Compound 61, 3′-hydroxy-5′-[4-(2-hydroxyethyl)-1-piperidinyl]benzoxazinorifamycin]", "values": [{"measurement": "MIC (μg/mL) E coli", "setting": "E coli", "value": ">8", "unit": "µg/mL"}, {"measurement": "MIC (μg/mL) H. flu", "setting": "H. flu", "value": 0.25, "unit": "µg/mL"}, {"measurement": "MIC (μg/mL) S. aureus", "setting": "S. aureus", "value": 0.004, "unit": "µg/mL"}, {"measurement": "MIC (μg/mL) S. pneumo.", "setting": "S. pneumo.", "value": 0.00012, "unit": "µg/mL"}, {"measurement": "MIC (μg/mL) E. faecalis", "setting": "E. faecalis", "value": 1, "unit": "µg/mL"}]}, {"smiles": "COC1C=COC2(C)Oc3c(C)c(O)c4c(=O)c(c5oc6cc(N7CCC(c8ccccc8)CC7)cc(O)c6nc-5c4c3C2=O)NC(=O)C(C)=CC=CC(C)C(O)C(C)C(O)C(C)C(O)C1C", "note": "(stereo not drawn) [Compound 62, 25-O-deacetyl-3′-hydroxy-5′-[4-phenyl-1-piperidinyl]benzoxazinorifamycin]", "values": [{"measurement": "MIC (μg/mL) E coli", "setting": "E coli", "value": ">8", "unit": "µg/mL"}, {"measurement": "MIC (μg/mL) H. flu", "setting": "H. flu", "value": 0.5, "unit": "µg/mL"}, {"measurement": "MIC (μg/mL) S. aureus", "setting": "S. aureus", "value": 0.015, "unit": "µg/mL"}, {"measurement": "MIC (μg/mL) S. pneumo.", "setting": "S. pneumo.", "value": 0.008, "unit": "µg/mL"}, {"measurement": "MIC (μg/mL) E. faecalis", "setting": "E. faecalis", "value": 8, "unit": "µg/mL"}]}, {"smiles": "COCCOC(=O)NC1CCN(c2cc(O)c3nc4c5c6c7c(C)c(O)c5c(=O)c(c-4oc3c2)NC(=O)C(C)=CC=CC(C)C(O)C(C)C(O)C(C)C(O)C(C)C(OC)C=COC(C)(O7)C6=O)CC1", "note": "(stereo not drawn) [Compound 63, 25-O-deacetyl-3′-hydroxy-5′-[4-methoxyethylcarbamyl-1-piperidinyl]benzoxazinorifamycin]", "values": [{"measurement": "MIC (μg/mL) E coli", "setting": "E coli", "value": 8, "unit": "µg/mL"}, {"measurement": "MIC (μg/mL) H. flu", "setting": "H. flu", "value": 0.25, "unit": "µg/mL"}, {"measurement": "MIC (μg/mL) S. aureus", "setting": "S. aureus", "value": 0.008, "unit": "µg/mL"}, {"measurement": "MIC (μg/mL) S. pneumo.", "setting": "S. pneumo.", "value": 0.002, "unit": "µg/mL"}, {"measurement": "MIC (μg/mL) E. faecalis", "setting": "E. faecalis", "value": 1, "unit": "µg/mL"}]}, {"smiles": "COC1C=COC2(C)Oc3c(C)c(O)c4c(=O)c(c5sc6cc(N7CC(C)NC(C)C7)ccc6nc-5c4c3C2=O)NC(=O)C(C)=CC=CC(C)C(O)C(C)C(O)C(C)C(OC(C)=O)C1C", "note": "[Compound 64, 5′-[(3R,5S)-3,5-dimethyl-1-piperazinyl]benzthiazinorifamycin]", "values": [{"measurement": "MIC (μg/mL) E coli", "setting": "E coli", "value": 4, "unit": "µg/mL"}, {"measurement": "MIC (μg/mL) H. flu", "setting": "H. flu", "value": 0.25, "unit": "µg/mL"}, {"measurement": "MIC (μg/mL) S. aureus", "setting": "S. aureus", "value": 0.004, "unit": "µg/mL"}, {"measurement": "MIC (μg/mL) S. pneumo.", "setting": "S. pneumo.", "value": 0.00012, "unit": "µg/mL"}, {"measurement": "MIC (μg/mL) E. faecalis", "setting": "E. faecalis", "value": 0.12, "unit": "µg/mL"}]}, {"smiles": "COC1C=COC2(C)Oc3c(C)c(O)c4c(=O)c(c5sc6cc(N7CC(C)NC(C)C7)ccc6nc-5c4c3C2=O)NC(=O)C(C)=CC=CC(C)C(O)C(C)C(O)C(C)C(O)C1C", "note": "[Compound 65, 25-O-deacetyl-5′-[(3R,5S)-3,5-dimethyl-1-piperazinyl]benzthiazinorifamycin]", "values": [{"measurement": "MIC (μg/mL) E coli", "setting": "E coli", "value": 2, "unit": "µg/mL"}, {"measurement": "MIC (μg/mL) H. flu", "setting": "H. flu", "value": 0.12, "unit": "µg/mL"}, {"measurement": "MIC (μg/mL) S. aureus", "setting": "S. aureus", "value": 0.002, "unit": "µg/mL"}, {"measurement": "MIC (μg/mL) S. pneumo.", "setting": "S. pneumo.", "value": 0.00025, "unit": "µg/mL"}, {"measurement": "MIC (μg/mL) E. faecalis", "setting": "E. faecalis", "value": 0.12, "unit": "µg/mL"}]}, {"smiles": "COC1C=COC2(C)Oc3c(C)c(O)c4c(=O)c(c5oc6cc(N7CCC(CCO)CC7)cc(O)c6nc-5c4c3C2=O)NC(=O)C(C)=CC=CC(C)C(O)C(C)C(O)C(C)C(O)C1C", "note": "(stereo not drawn) [Compound 66, 25-O-deacetyl-3′-hydroxy-5′-[4-(2-hydroxyethyl)-1-piperidinyl]benzoxazinorifamycin]", "values": [{"measurement": "MIC (μg/mL) E coli", "setting": "E coli", "value": 4, "unit": "µg/mL"}, {"measurement": "MIC (μg/mL) H. flu", "setting": "H. flu", "value": 0.12, "unit": "µg/mL"}, {"measurement": "MIC (μg/mL) S. aureus", "setting": "S. aureus", "value": 0.004, "unit": "µg/mL"}, {"measurement": "MIC (μg/mL) S. pneumo.", "setting": "S. pneumo.", "value": 0.0005, "unit": "µg/mL"}, {"measurement": "MIC (μg/mL) E. faecalis", "setting": "E. faecalis", "value": 0.12, "unit": "µg/mL"}]}, {"smiles": "CCCS(=O)(=O)NC1CCN(c2cc(O)c3nc4c5c6c7c(C)c(O)c5c(=O)c(c-4oc3c2)NC(=O)C(C)=CC=CC(C)C(O)C(C)C(O)C(C)C(O)C(C)C(OC)C=COC(C)(O7)C6=O)CC1", "note": "(stereo not drawn) [Compound 67]", "values": [{"measurement": "MIC (μg/mL) E coli", "setting": "E coli", "value": ">8", "unit": "µg/mL"}, {"measurement": "MIC (μg/mL) H. flu", "setting": "H. flu", "value": 0.12, "unit": "µg/mL"}, {"measurement": "MIC (μg/mL) S. aureus", "setting": "S. aureus", "value": 0.008, "unit": "µg/mL"}, {"measurement": "MIC (μg/mL) S. pneumo.", "setting": "S. pneumo.", "value": 0.001, "unit": "µg/mL"}, {"measurement": "MIC (μg/mL) E. faecalis", "setting": "E. faecalis", "value": 0.5, "unit": "µg/mL"}]}, {"smiles": "COC1C=COC2(C)Oc3c(C)c(O)c4c(=O)c(c5sc6cc(N7CC(C)N(CC8CC8)CC7C)ccc6nc-5c4c3C2=O)NC(=O)C(C)=CC=CC(C)C(O)C(C)C(O)C(C)C(OC(C)=O)C1C", "note": "[Compound 68, 5′-[(2S,5R)-4-(cyclopropylmethyl)-2,5-dimethylpiperazinyl]benzthiazinorifamycin]", "values": [{"measurement": "MIC (μg/mL) E coli", "setting": "E coli", "value": ">8", "unit": "µg/mL"}, {"measurement": "MIC (μg/mL) H. flu", "setting": "H. flu", "value": 0.5, "unit": "µg/mL"}, {"measurement": "MIC (μg/mL) S. aureus", "setting": "S. aureus", "value": 0.06, "unit": "µg/mL"}, {"measurement": "MIC (μg/mL) S. pneumo.", "setting": "S. pneumo.", "value": 0.0005, "unit": "µg/mL"}, {"measurement": "MIC (μg/mL) E. faecalis", "setting": "E. faecalis", "value": 2, "unit": "µg/mL"}]}]}
